Measured values taken from patent publication US12473295B2, “Substituted straight chain spiro derivatives” (Janssen Pharmaceutica NV, priority 2019, dated 2025).
Where a name gives a salt, the structure may show the parent alone. Read-outs that look alike come from different tables or passages of the source.

Tests used:
[1] = target: menin/MLL (terbium chelate-labeled menin, FITC-MBM1 peptide) (Homo sapiens (Human), UniProt O00255); experiment: Menin/MLL homogenous time-resolved fluorescence (HTRF) assay; format: binding;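 also: IC50 from percent inhibition of HTRF signal, normalized between wells without competitor and wells with a saturating competitor that displaces FITC-MBM1 from His-tagged menin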
Sequence of menin/MLL (terbium chelate-labeled menin, FITC-MBM1 peptide) (O00255 other isoform, or with tags, fused parts or gaps): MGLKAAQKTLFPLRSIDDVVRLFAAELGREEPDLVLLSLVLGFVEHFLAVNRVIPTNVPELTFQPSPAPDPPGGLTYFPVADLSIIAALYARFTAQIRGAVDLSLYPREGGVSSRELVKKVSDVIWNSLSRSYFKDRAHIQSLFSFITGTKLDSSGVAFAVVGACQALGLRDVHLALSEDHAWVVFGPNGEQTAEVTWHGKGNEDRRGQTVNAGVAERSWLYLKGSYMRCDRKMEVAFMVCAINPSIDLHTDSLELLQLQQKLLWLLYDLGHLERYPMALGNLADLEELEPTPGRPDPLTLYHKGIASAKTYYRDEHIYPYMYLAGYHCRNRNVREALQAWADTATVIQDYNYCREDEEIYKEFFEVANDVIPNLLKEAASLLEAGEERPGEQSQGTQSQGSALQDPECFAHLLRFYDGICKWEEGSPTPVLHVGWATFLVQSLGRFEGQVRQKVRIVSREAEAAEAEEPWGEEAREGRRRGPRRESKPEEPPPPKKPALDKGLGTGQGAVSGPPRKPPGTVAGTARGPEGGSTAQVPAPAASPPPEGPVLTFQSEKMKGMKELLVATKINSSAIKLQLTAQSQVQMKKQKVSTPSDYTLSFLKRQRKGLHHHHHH

MOLM14 cells = experiment: Proliferation assay (spheroid growth, 8 days), MOLM14; format: cell-based, human; settings: MOLM14, 8 days, read-out: spheroid assay_OneTime MOLM14 IC50;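 also: spheroid size read as confluence by live-cell imaging, compounds added at a range of concentrations with 0.3% DMSO, DMSO-treated wells = 0%, highest reference dose = low control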
OCI-AML3 cells = experiment: Proliferation assay (spheroid growth, 8 days), OCI-AML3; format: cell-based, human; settings: OCI-AML3, 8 days
Method: (§1) The anti-proliferative effect of menin/MLL protein/protein interaction inhibitor test compounds was assessed in human leukemia cell lines. The cell line MOLM14 harbors a MLL translocation and expresses the MLL fusion protein MLL-AF9, respectively, as well as the wildtype protein from the second allele. OCI-AML3 cells that carry the NPM1c gene mutation were also tested. […] KO-52 was used as a control cell line containing two MLL (KMT2A) wildtype alleles in order to exclude compounds that display general cytotoxic effects.
(§2) KO-52 and OCI-AML3 cell lines were propagated in alpha-MEM (Sigma Aldrich) supplemented with 20% heat-inactivated fetal bovine serum (HyClone), 2 mM L-glutamine (Sigma Aldrich) and 50 μg/ml gentamycin (Gibco).
(§3) In order to assess the anti-proliferative effects, 200 MOLM14 cells, 200 OCI-AML3 cells or 300 KO-52 cells were seeded in 200 μl media per well in […] round bottom, ultra-low attachment plates (Costar, catalogue number 7007). Cell seeding numbers were chosen based on growth curves to ensure linear growth throughout the experiment. Test compounds were added at different concentrations and the DMSO content was normalized to 0.3%. Cells were incubated for 8 days at 37° C. and 5% CO2. Spheroid like growth was measured in real-time by live-cell imaging (IncuCyteZOOM, Essenbio, 4× objective) acquiring images at day 8. Confluence (%) as a measure of spheroid size was determined using an integrated analysis tool.
(§4) In order to determine the effect of the test compounds over time, the confluence in each well as a measure of spheroid size, was calculated. Confluence of the highest dose of a reference compound was used as baseline for the LC (Low control) and the confluence of DMSO treated cells was used as 0% cytotoxicity (High Control, HC).
(§5) GraphPad Prism(version 7.00) was used to calculate the IC50. Dose-response equation was used for the plot of % Effect vs Log 10 compound concentration with a variable slope and fixing the maximum to 100% and the minimum to 0%.

KO-52 cells = experiment: Proliferation assay (spheroid growth, 8 days), KO-52 control cell line; format: cell-based, human; settings: read-out: spheroid assay_OneTime KO-52 IC50
Method: as §1, §2, §3, §4, §5

MEIS1 mRNA = MEIS1 mRNA expression assay (Quantigene Singleplex) in MOLM14 cells; format: cell-based, human; settings: 48 hours incubation;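 also: MEIS1 transcript levels read by probe hybridization and normalized to RPL28 mRNA, with IC50 fitted to fold changes across a rising compound concentration series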
[2] = HTRF-30 min incubation IC50, 30 min incubation
[3] = read-out: HTRF-30 min incubation IC50, 30 min incubation

Row | IC50 [1, 2] | IC50 (MOLM14 cells; Homo sapiens, MOLM-14, […]) | IC50 (OCI-AML3 cells; Homo sapiens, OCI-AML-3, […]) | IC50 (MEIS1 mRNA; Homo sapiens, MOLM-14, 48 h) | IC50 [1, 3] | IC50 (MOLM14 cells) | IC50 (OCI-AML3 cells) | IC50 (MEIS1 mRNA) | Compound | IC50 (KO-52 cells; Homo sapiens, […]) | IC50 (KO-52 cells)
1 | 0.97 nM | 690 nM | 2680 nM | ~840 nM |  |  |  |  | CCN(C(=O)c1cc(F)ccc1Oc1nncnc1N1CCC2(C1)CN([C@H](CN)C(C)C)C2)C(C)C (single isomer, unassigned) [Compound 24, (*S)-2-((5-(2-(1-amino-3-methylbutan-2-yl)-2,6-diazaspiro[3.4]octan-6-yl)-1,2,4-triazin-6-yl)oxy)-N-ethyl-5-fluoro-N-isopropylbenzamide] | > 15000 nM | 
2 | 0.55 nM | 290 nM | 1200 nM | ~240 nM |  |  |  |  | CC(C)[C@@H](CCC(N)=O)N1CC2(CCN(c3ncnnc3Oc3ccc(F)cc3-c3cncnc3C3CC3)C2)C1 (single isomer, unassigned) [Compound 43, (*R)-4-(6-(6-(2-(4-cyclopropylpyrimidin-5-yl)-4-fluorophenoxy)-1,2,4-triazin-5-yl)-2,6-diazaspiro[3.4]octan-2-yl)-5-methylhexanamido] | > 15000 nM | 
3 |  |  |  |  | 0.51 nM | 100 nM | 1320 nM | 120 nM | CCN(C(=O)c1cc(F)ccc1Oc1nnccc1N1CCC2(C1)CN([C@H](CCCN(C)C)C(C)C)C2)C(C)C (single isomer, unassigned) [Compound 77, (*R)-2-((4-(2-(6-(dimethylamino)-2-methylhexan-3-yl)-2,6-diazaspiro[3.4]octan-6-yl)pyridazin-3-yl)oxy)-N-ethyl-5-fluoro-N-isopropylbenzamide] |  | 13700 nM
4 |  |  |  |  | 3.69 nM | > 940 nM | 12200 nM | > 1000 nM | CCN(C(=O)c1cc(F)ccc1Oc1nnccc1N1CCC2(C1)CN([C@@H](CCCN(C)C)C(C)C)C2)C(C)C (single isomer, unassigned) [Compound 78, (*S)-2-((4-(2-(6-(dimethylamino)-2-methylhexan-3-yl)-2,6-diazaspiro[3.4]octan-6-yl)pyridazin-3-yl)oxy)-N-ethyl-5-fluoro-N-isopropylbenzamide] |  | > 15000 nM
5 |  | > 940 nM | 7170 nM | > 1000 nM |  |  |  |  | CCN(C(=O)c1cc(F)ccc1Oc1nnccc1N1CCC2(C1)CN([C@@H](CCCN(C)CCOC)C(C)C)C2)C(C)C (single isomer, unassigned) [Compound 84, (*S)—N-ethyl-5-fluoro-N-isopropyl-2-((4-(2-(6-((2-methoxyethyl)(methyl)amino)-2-methylhexan-3-yl)-2,6-diazaspiro[3.4]octan-6-yl)pyridazin-3-yl)oxy)benzamide oxalate] | > 15000 nM | 
6 | 0.083 nM | 120 nM | 810 nM | 130 nM |  |  |  |  | COCCN(C)CCC[C@H](C(C)C)N1CC2(CCN(c3ccnnc3Oc3ccc(F)cc3C(=O)N(C(C)C)C(C)C)C2)C1 (single isomer, unassigned) [Compound 88, (*R)-5-fluoro-N,N-isopropyl-2-((4-(2-(6-((2-methoxyethyl)(methyl)amino)-methylhexan-3-yl)-2,6-diazaspiro[3.4]octan-6-yl)pyridazin-3-yl)oxy)benzamide oxalate] | 14000 nM | 
7 | 4.98 nM | 390 nM | 1620 nM | ~620 nM |  |  |  |  | COCCN(C)CCC[C@@H](C(C)C)N1CC2(CCN(c3ncnnc3Oc3ccc(F)cc3C(=O)N(C(C)C)C(C)C)C2)C1 (single isomer, unassigned) [Compound 95, (*S)-5-fluoro-N,N-isopropyl-2-((5-(2-(6-((2-methoxyethyl)(methyl)amino)-methylhexan-3-yl)-2,6-diazaspiro[3.4]octan-6-yl)-1,2,4-triazin-6-yl)oxy)benzamide oxalate] | > 15000 nM | 
8 | 2.43 nM | 290 nM | 1360 nM | 420 nM |  |  |  |  | CC(C)[C@H](CCCN(C)C)N1CC2(CCN(c3ncnnc3Oc3ccc(F)cc3C(=O)N(C(C)C)C(C)C)C2)C1 (single isomer, unassigned) [Compound 103, (*S)-2-((5-(2-(6-(dimethylamino)-2-methylhexan-3-yl)-2,6-diazaspiro[3.4]octan-6-yl)-1,2,4-triazin-6-yl)oxy)-5-fluoro-N,N-diisopropylbenzamide fumarate] | > 15000 nM | 
9 | 0.065 nM | 21 nM | 150 nM | 34 nM |  |  |  |  | CCN(C(=O)c1cc(F)ccc1Oc1nncnc1N1CCC2(C1)CN([C@H](CCCN(C)C(C)C)C(C)C)C2)C(C)C (single isomer, unassigned) [Compound 122, (*R)—N-ethyl-5-fluoro-N-isopropyl-2-((5-(2-(6-(isopropyl(methyl)amino)-2-methylhexan-3-yl)-2,6-diazaspiro[3.4]octan-6-yl)-1,2,4-triazin-6-yl)oxy)benzamide fumarate] | > 15000 nM | 
10 | 3.98 nM | > 940 nM | 3550 nM | > 1000 nM |  |  |  |  | CCN(C(=O)c1cc(F)ccc1Oc1nncnc1N1CCC2(C1)CN([C@@H](CCCN(C)C(C)C)C(C)C)C2)C(C)C (single isomer, unassigned) [Compound 123, (*S)—N-ethyl-5-fluoro-N-isopropyl-2-((5-(2-(6-(isopropyl(methyl)amino)-2-methylhexan-3-yl)-2,6-diazaspiro[3.4]octan-6-yl)-1,2,4-triazin-6-yl)oxy)benzamide fumarate] | > 15000 nM | 
11 | 0.089 nM | 26 nM | 140 nM | 44 nM |  |  |  |  | CCCN(C)CCC[C@H](C(C)C)N1CC2(CCN(c3ncnnc3Oc3ccc(F)cc3C(=O)N(CC)C(C)C)C2)C1 (single isomer, unassigned) [Compound 127, (*R)—N-ethyl-5-fluoro-N-isopropyl-2-((2-methyl-6-(methyl(propyl)amino)hexan-3-yl)-2,6-diazaspiro[3.4]octan-6-yl)-1,2,4-triazin-6-yl)oxy)benzamide fumarate] | 11300 nM | 
12 | 4.16 nM | 590 nM | 4690 nM |  |  |  |  |  | CCN(C(=O)c1cc(F)ccc1Oc1nncnc1N1CCC2(C1)CN([C@H](CCCN(C)CC(C)OC)C(C)C)C2)C(C)C (single isomer, unassigned) [Compound 254, oxalate] | > 15000 nM | 
13 |  | 600 nM | 1360 nM |  |  |  |  |  | CCN(C(=O)c1cc(F)ccc1Oc1nncnc1N1CCC2(C1)CN([C@@H](CCCN(C)CCOC)C(C)C)C2)C(C)C [Compound 28, (S)—N-ethyl-5-fluoro-N-isopropyl-2-((5-(2-(6-((2-methoxyethyl)(methyl)amino)-2-methylhexan-3-yl)-2,6-diazaspiro[3.4]octan-6-yl)-1,2,4-triazin-6-yl)oxy)benzamide] | > 15000 nM | 
14 | 0.16 nM | 40 nM | 190 nM |  |  |  |  |  | CCN(C(=O)c1cc(F)ccc1Oc1nncnc1N1CCC2(C1)CN([C@H](CCCN(CCOC)CCOC)C(C)C)C2)C(C)C [Compound 90, (R)-2-((5-(2-(6-(bis(2-methoxyethyl)amino)-2-methylhexan-3-yl)-2,6-diazaspiro[3.4]octan-6-yl)-1,2,4-triazin-6-yl)oxy)-N-ethyl-5-fluoro-N-isopropylbenzamide formate] | 1000 nM | 
15 |  | 110 nM | 330 nM |  |  |  |  |  | CCN(C(=O)c1cc(F)ccc1Oc1nnc(Cl)nc1N1CCC2(C1)CN([C@H](CCCN(C)CCOC)C(C)C)C2)C(C)C [Compound 394, (R)-2-((3-chloro-5-(2-(6-((2-methoxyethyl)(methyl)amino)-2-methylhexan-3-yl)-2,6-diazaspiro[3.4]octan-6-yl)-1,2,4-triazin-6-yl)oxy)-N-ethyl-5-fluoro-N-isopropylbenzamide fumarate] | > 15000 nM | 

Row | Compound | IC50 [1, 2] | IC50 (MOLM14 cells; Homo sapiens, MOLM-14, […]) | IC50 (OCI-AML3 cells; Homo sapiens, OCI-AML-3, […]) | IC50 (MEIS1 mRNA; Homo sapiens, MOLM-14, 48 h) | IC50 [1, 3] | IC50 (MOLM14 cells) | IC50 (OCI-AML3 cells) | IC50 (MEIS1 mRNA) | IC50 (KO-52 cells; Homo sapiens, […]) | IC50 (KO-52 cells)
16 | CCN(C(=O)c1cc(F)ccc1Oc1nncnc1N1CCC2(C1)CN([C@H](CCCN(C)CCOC)C(C)C)C2)C(C)C [Compound 27, (R)-N-ethyl-5-fluoro-N-isopropyl-2-((5-(2-(6-((2-methoxyethyl)(methyl)amino)-2-methylhexan-3-yl)-2,6-diazaspiro[3.4]octan-6-yl)-1,2,4-triazin-6-yl)oxy)benzamide] |  |  | 91 nM |  |  |  |  |  | 6850 nM | 
